# According to PMC12347358, “Structural Insights and Calcium-Switching Mechanism of Fasciola hepatica Calcium-Binding Protein FhCaBP4” (International Journal of Molecular Sciences, 2025):
# Assays:
# [1] = biological target: T1, FhCaBP4 (Fasciola hepatica calcium-binding protein 4) (Fasciola hepatica, UniProt I6U578); experiment: microscale thermophoresis (MST), labelled purified protein
# T1 construct: full-length (residues 1–191), C-terminal 6×His-tag (LEHHHHHH)
# [2] = biological target: Fasciola hepatica calcium-binding protein 4 (FhCaBP4), full-length (residues 1–191) (Fasciola hepatica); experiment: crystal structure; apo form at 1.93 Å, space group P212121, two molecules per asymmetric unit; crystals grown at 20 °C by vapor diffusion with 2 M ammonium sulfate, 0.1 M sodium citrate/citric acid pH 5.5
Compound,Kd [1],stoichiometry N [2]
CN(C)CCCN1c2ccccc2Sc2ccc(Cl)cc21 [CPZ],289 ± 99.6 µM,
CN1CCN(CCCN2c3ccccc3Sc3ccc(C(F)(F)F)cc32)CC1 [TFP],699 ± 341 µM,
NCCCCCCNS(=O)(=O)c1cccc2c(Cl)cccc12 [W7],471 ± 157 µM,
"Fasciola hepatica calcium-binding protein 4 (FhCaBP4), full-length (residues 1–191) (natural protein)",,2
